The test system of one experiment is leukocytes in CSF. The experiment can be described thus: Leukocyte and protein influx into CSF of rabbits challenged with pneumococci. The conditions noted are these: intravenous, meningitis model. In kind it is in vivo, rabbit. An excerpt: This inhibitory activity implies that antibodies to FHA which bind to any of the three Factor X regions would disturb leukocyte recruitment. This is to be distinguished from anti-FHA antibodies that bind to endothelia by recognizing an integrin receptor which is an endothelial cell component (see below). […] This is shown in FIG. 6 where various doses of antibody were given to rabbits and the number of leukocytes recruited into the cerebrospinal fluid in response to pneumonoccal meningitis was determined.
Rabbits were inoculated intracisternally with 10^8 pneumococci and the generation of an inflammatory response in cerebrospinal fluid (CSF) was followed over time by measuring the appearance of leukocytes and protein in CSF. Animals were treated with the antibodies intravenously (2 mg/kg of culture supernatant fluid) at the same time as the intracisternal challenge was given.

The next experiment deals with neutrophils. The experiment can be described thus: Inhibition of 125I-Factor X binding to neutrophils. Further details: species or system human. As to the method: Human Factor X (Sigma or Hematologic Technologies Inc.) was labeled with ^125 I using Iodogen (Pierce Chemical Co.) Human neutrophils were isolated from heparinized blood according to the manufacturer's specification using Neutrophil Isolation Medium (Cardinal Associates, Santa Fe, N.Mex.) and washed three times with 5 mM EDTA-phosphate-bufferedsaline (PBS), pH 7.2, at 4° C. To eliminate platelet contamination,neutrophils were incubated with autologous serum containing 5 mM EDTA for 30 mins. at 37° C., washed three times with ice-cold PBS, pH 7.2, and resuspended in RPMI 1640 tissue culture medium (Whittaker M. A. Bioproducts, Walkersville, Md.) at 4° C. Binding of ^125 I-Factor X to neutrophils was measured based on a method described by Altieri et al. (1991) Science 254: 1200-1202. Briefly, 200 μl of neutrophils (1.5×10^7 /ml) were supplemented with 17.5 μl of 50 mM CaCl2, stimulated with 3.5 μl of 100 μM NH2 -formyl-Met-Leu-Phe (Sigma), and mixed with 30 μl of 10.3 μg/ml ^125 I-Factor X and 100 μl of 1.75 mM of peptide. […] Aliquots of the supernatant (cell free ^125 I-Factor X) and the cell pellet (cell bound ^125 I-Factor X) were counted in a gamma-counter. Nonspecific binding (~50,000 cpm) was determined by adding a 100 fold excess of unlabeled Factor X, and subtracted from total radioactivity (~500,000 cpm for controls).

The conditions of experiment [1]: TLC plates containing ciliary extracts; cited from earlier work.

Consider filamentous hemagglutinin [native FHA], for which, in the experiment on leukocytes in CSF, the “leukocyte influx into / inflammation of CSF (in words)” value was “decreases inflammation”. Besides, in the experiment with neutrophils, the 50% inhibitory concentration (IC50) (commonly the midpoint of a concentration-inhibition curve) was determined as 0.1 µM. The “inhibition of 125I-Factor X binding to neutrophils” value in the experiment on neutrophils (native FHA 0.3 μM) was found to be 70±4%. Moreover, in experiment [1], the binding to lactosylceramide entry is listed as “binds to lactosylceramide”.

The values above are taken from US6015560A, “Antibody recognizing endothelial cell ligand for leukocyte CR3” (priority 1995, dated 2000).
